From article PMC8111447 (Frontiers in Pharmacology, 2021)
Read-outs that look alike come from different tables or passages of the source.

Key:
EGFR T790M = system: EGFR T790M; set-up: method as in Cross et al., 2014; conditions: ref Cross et al., 2014; cited from earlier work
[1] = set-up: method as in earlier work; conditions: main metabolites of osimertinib, ref Cheng et al., 2016, Dickinson et al., Vishwanathan et al., 2019; cited from earlier work
A431 (EGFR^WT) = experiment: Cell proliferation assay (CTG, 72 h); assay type: cell-based; conditions: Homo sapiens, A-431, A431 cells, mean ± SD, n = 3
Description: (§1) Human lung cancer cell lines (NCI-H1975, H3255 and A431) were obtained from the American Type Culture Collection (ATCC), while PC-9 cell line was supplied by the European Collection of Authenticated Cell Cultures (ECACC). For in vivo implantation, NCI-H1975, H3255 and PC-9 cells were cultured in RPMI1640 (Invitrogen) supplemented with 10% v/v fetal calf serum (Sigma-Aldrich) and 2 mmol/L L-glutamine (Invitrogen). A431 cells were cultured in DMEM (Invitrogen) supplemented with 10% v/v fetal calf serum and 2 mmol/L v/v L-glutamine. All cell lines were then cultured in a humidified incubator with 5% CO2 at 37°C.
(§2) Test compounds were dissolved in DMSO as a 10 mmol/L stock solution. The initial concentration of compounds were 10 μmol/L and the 3-fold dilution was nine times. […] Plate was shaked for 2 min and the mixture was incubated at room temperature for 10 min.
(§3) The half-maximal inhibition concentration (IC50) values were processed by GraphPad Prism7 (GraphPad Software; La Jolla, CA).

[2] = system: NCI-H1975 (EGFR^L858R/T790M); experiment: Cell proliferation assay (CTG, 72 h); assay type: cell-based; conditions: Homo sapiens, NCI-H1975 cells, mean ± SD, n = 3
Description: as §1, §2, §3

H3255 (EGFR^L858R) = experiment: Cell proliferation assay (CTG, 72 h); assay type: cell-based, human; conditions: Homo sapiens, NCI-H3255; H3255 cells, 72 h; mean ± SD, n = 3
Description: as §1, §2, §3

PC-9 (EGFR^d746–750) = experiment: Cell proliferation assay (CTG, 72 h); assay type: cell-based, human; conditions: Homo sapiens; PC-9 cells, 72 h; mean ± SD, n = 3
Description: as §1, §2, §3

NSCLC patients = conditions: cited from earlier work
[3] = system: A431 (wild-type EGFR) tumor xenografts; experiment: A431 xenograft model; assay type: in vivo, Nu/Nu nude mice; conditions: 30 mg/kg
Description: The female Nu/Nu nude mice were purchased from Beijing Vital River Laboratories. […] Nu/Nu nude mice were purchased from the Beijing Vital River Laboratories of China. The 6–8 weeks old female mice were inoculated subcutaneously at the right flank with approximately 3–5 × 10^6 tumor cells in 0.2 ml of medium. The treatments were started when the tumor size reached approximately 200 mm^3. […] All mice were orally administrated once daily for consecutive 14 days. Mouse body weight, tumor weight and tumor volume (TV) were measured twice per week. TV was then used for the calculation of tumor inhibitory rate and tumor regression rate.

[4] = NSCLC patients with EGFR T790M mutation, ref Jänne et al., 2015, Mok et al., 2017

C=CC(=O)Nc1cc(Nc2nccc(-c3c[nH]c4ccccc34)n2)c(OC)cc1N(C)CCN(C)C [AZ5104]
fold more active on EGFR T790M than osimertinib (EGFR T790M): 8 fold
metabolite level relative to the parent drug [1]: about 10%

C=CC(=O)Nc1cc(Nc2nccc(-c3cn(C)c4ccccc34)n2)c(OC)cc1N(C)CCN(C)C [Osimertinib]
IC50 (H3255 (EGFR^L858R)): 0.0178 ± 0.0005 µM
IC50 (PC-9 (EGFR^d746–750)): 0.0142 ± 0.00163 µM
ORR (NSCLC patients; [4]): 70%
median PFS (NSCLC patients; [4]): 9.9 months
efficacy compared to the first-line EGFR TKIs (NSCLC patients; advanced NSCLC patients with EGFR mutations, comparator 10.2 months, ref Soria et al., 2018, Ramalingam et al., 2020): 18.9 months
overall survival (NSCLC patients; advanced NSCLC patients with EGFR mutations, comparator group 31.8 months, ref Soria et al., 2018, Ramalingam et al., 2020): 38.6 months
ORR (NSCLC patients; second-line, locally advanced or metastatic NSCLC progressed on prior EGFR TKI, ref Goss et al., 2016, Mok et al., 2017): 70%

C=CC(=O)Nc1cc(Nc2nccc(-c3cn(C)c4ccccc34)n2)c(OC)cc1N(C)CCNC [AZ7550]
metabolite level relative to the parent drug [1]: about 10%

CN(C)C/C=C/C(=O)Nc1cc2c(Nc3ccc(F)c(Cl)c3)ncnc2cc1O[C@H]1CCOC1 [afatinib, reference compound]
body weight [3]: severe body loss
